The text below walks through data of paper PMC8648872, “A host-directed macrocyclic peptide therapeutic for MDR gram negative bacterial infections” (Scientific Reports, 2021).

≈ marks a conversion by molar mass, not a printed value. Read-outs that look alike come from different tables or passages of the source. Where a SMILES comes first, the peptide text is derived from it. Bridges are numbered along the chain shown (N, C = ends).

In one data set the test system is K. pneumoniae BAA-1706. In words: microbe, parasite or virus in culture. The format is cell-based. Here is the method:
(§1) Bacterial strains were obtained from American Type Culture Collection. K. pneumoniae strains included BAA-1705 (blaKPC-2, hypermucoid), BAA-2146 (blaNDM-1), BAA-700603 (SHV-18, extended spectrum β-lactamase, ESBL), and BAA-1706 (non-CRE reference strain). E. coli strains included BAA-2340 (blaKPC-2), BAA-2471 (blaNDM-1), and ML35 (non-CRE reference strain).
(§2) Minimum inhibitory concentration (MIC) assays were performed ± 50% heat-inactivated mouse serum using Clinical and Laboratory Standards Institute (CLSI; document M07-A9) protocols. Bacteria (5 × 10^5 CFU/ml) were incubated with antibiotics or peptide for 20 h at 37 °C, and bacterial growth was determined by A620 using a SpectraMax M5e plate reader.

The next data set has as its system E. coli ML35. In words: microbe, parasite or virus in culture. In kind it is cell-based. As to conditions: E. coli ML35, no MDR factor. Here is the method:
as §1, §2

For another data set, the system named is E. coli BAA-2471 (NDM-1). In words: microbe, parasite or virus in culture. In kind it is cell-based. Here is the method: as §1, §2
The next data set concerns E. coli BAA-2340 (KPC-2). In words: microbe, parasite or virus in culture. In kind it is cell-based. Here is the method:
as §1, §2

For data set [1], the system named is K. pneumoniae 700603 (ESBL). In words: microbe, parasite or virus in culture. In kind it is cell-based. Here is the method:
as §1, §2

For data set [2], the system named is K. pneumoniae BAA-1705 (KPC-2). Kind of data set: microbe, parasite or virus in culture. As to conditions: 37 °C. The format is cell-based. Here is the method: as §1, §2
Data set [3] has as its system K. pneumoniae BAA-2146 (NDM-1). Kind of data set: microbe, parasite or virus in culture. The format is cell-based. Here is the method: as §1, §2
Data set [4] deals with Kp-1705 (K. pneumoniae BAA-1705). In words: Kp-1705 bacteremic sepsis, survival. The format is in vivo, BALB/c mice. As to conditions: Kp-1705 i.p. in BALB/c mice; single i.p. dose 1.25 mg/kg 1 h p.i. Here is the method: BALB/c mice (Jackson Laboratories) 8–10 weeks of age were acclimated (3–5 to a cage for at least 5 days prior to infection) in a thermostatically controlled room with 12 h light/dark cycle. Cryopreserved K. pneumoniae cells were thawed and adjusted to a density of 6–10 × 10^8 CFU/ml, confirmed by plating on trypticase soy agar (TSA) plates. E. coli BAA-2340 was grown to log-phase in trypticase soy broth, pelleted, washed with PBS, and resuspended in PBS at 0.5–1 × 10^9 CFU/ml. Mice were infected by i.p. injection of 2–5 × 10^8 CFU of Kp-1705 or 3–6 × 10^7 CFU of E. coli BAA-2340 using a 28 g needle in a volume of 0.5 ml. Post-infection, mice were observed three times a day for at least 4 days and then daily for 28 days. Mice were euthanized when they became moribund. All experiments used both male and female mice and were repeated at least twice.

Data set [5] has as its system CRE and non-CRE strains of K. pneumoniae and E. coli. In kind it is cell-based. As to conditions: standard CLSI assay conditions. Here is the method:
as §1, §2

Another data set has as its system disseminated candidiasis. As to conditions: mouse models of disseminated candidiasis; cited from earlier work. From the text:
MTD12813 is a bioinspired macrocyclic peptide that is structurally related to naturally occurring θ-defensins. RTD-1, the prototype θ-defensin, was identified as a broad-spectrum antimicrobial peptide in vitro[8],[9]. […] Mechanisms implicated in the moderation of cytokine-driven inflammation include modulation of NFκB and MAPK pathways, suppression of TNF release via the inhibition of the pro-TNF sheddase TACE (ADAM17)[26], and dis ...

Setting [6] is: K. pneumoniae BAA-1706, no MDR factor, 50% heat inactivated mouse serum.
Where [7] appears, read: K. pneumoniae BAA-1706, no MDR factor, CLSI, 20 h, 37 °C, A620, no serum.
Setting [8] is: 50% heat inactivated mouse serum.
Where [9] appears, read: CLSI, 20 h, 37 °C, A620, no serum.
Setting [10] is: E. coli BAA-2340, KPC-2, 50% heat inactivated mouse serum.
Where [11] appears, read: E. coli BAA-2340, KPC-2, CLSI, 20 h, 37 °C, A620, no serum.
[12] abbreviates: CLSI M07-A9, 5 × 10^5 CFU/ml, 20 h, A620, no serum.
The mark [13] stands for this setting: in the presence of 50% heat inactivated mouse serum, 20 h, A620.
Where [14] appears, read: Klebsiella pneumoniae, BAA1706, K. pneumoniae BAA-1706, no MDR factor, 50% heat inactivated mouse serum, read-out: MIC.
Where [15] appears, read: Escherichia coli, 50% heat inactivated mouse serum, read-out: MIC.
Setting [16] is: Escherichia coli, CLSI, 20 h, 37 °C, A620, no serum, read-out: MIC.
Setting [17] is: Escherichia coli, BAA2471, 50% heat inactivated mouse serum, read-out: MIC.
Where [18] appears, read: Escherichia coli, BAA2471, CLSI, 20 h, 37 °C, A620, no serum, read-out: MIC.
The mark [19] stands for this setting: Klebsiella pneumoniae, 50% heat inactivated mouse serum, read-out: MIC.
Setting [20] is: Klebsiella pneumoniae, CLSI, 20 h, 37 °C, A620, no serum, read-out: MIC.
Where [21] appears, read: Klebsiella pneumoniae, BAA1705, CLSI M07-A9, 5 × 10^5 CFU/ml, 20 h, A620, no serum, read-out: MIC.
[22] abbreviates: Klebsiella pneumoniae, BAA2146, 50% heat inactivated mouse serum, read-out: MIC.
Setting [23] is: Klebsiella pneumoniae, BAA2146, CLSI, 20 h, 37 °C, A620, no serum, read-out: MIC.

Turning to Colistin, the MIC in the data set on K. pneumoniae BAA-1706 (setting [6]), against K. pneumoniae BAA-1706 (setting [7]), against E. coli ML35 (setting [8]), with E. coli ML35 (setting [9]), in the data set on E. coli BAA-2471 (NDM-1) (setting [8]) and in the data set with E. coli BAA-2471 (NDM-1) (setting [9]) was less than 0.78 µg/mL throughout. In addition, the MIC (in the data set with E. coli BAA-2340 (KPC-2) (setting [10]); against E. coli BAA-2340 (KPC-2) (setting [11]); in data set [1] (setting [8]); in [1] (setting [9]); in data set [2] (setting [12]); in data set [2] (setting [13])) was less than 0.78 µg/mL throughout. Besides, the MIC in data set [3] (setting [8]) and in data set [3] (setting [9]) was less than 0.78 µg/mL in each case. The “long term (≥ 28 days) survival” value in [4] stood at 100%. In [5], the “MIC against all seven organisms of the panel” value was less than 0.78 µg/mL.
Take `CC[C@H](C)[C@@H]1NC(=O)[C@@H]2CSSC[C@H](NC(=O)[C@H](CCCNC(=N)N)NC(=O)[C@@H]3CSSC[C@H](NC1=O)C(=O)N[C@@H]([C@@H](C)O)C(=O)N[C@@H](CCCNC(=N)N)C(=O)NCC(=O)N[C@@H](Cc1ccccc1)C(=O)N3)C(=O)N[C@@H](CC(C)C)C(=O)N[C@H]1CSSC[C@H](NC(=O)[C@H](C(C)C)NC(=O)CNC(=O)[C@H](CCCNC(=N)N)NC(=O)[C@H](CCCNC(=N)N)NC1=O)C(=O)N[C@@H](CCCNC(=N)N)C(=O)N2` [RTD-1] (cyclo(GFCRCLCRRGVCRCICTR); disulfide 3-16, 5-14, 7-12): the MIC is greater than 100 µg/mL with K. pneumoniae BAA-1706 (setting [6]); greater than 100 µg/mL against K. pneumoniae BAA-1706 (setting [7]); greater than 100 µg/mL against E. coli ML35 (setting [8]); 25 µg/mL (≈ 12 µM) in the data set on E. coli ML35 (setting [9]); greater than 100 µg/mL with E. coli BAA-2471 (NDM-1) (setting [8]); 25 µg/mL (≈ 12 µM) in the data set on E. coli BAA-2471 (NDM-1) (setting [9]). Besides, the MIC was greater than 100 µg/mL against E. coli BAA-2340 (KPC-2) (setting [10]); 50 µg/mL (≈ 24 µM) in the data set on E. coli BAA-2340 (KPC-2) (setting [11]); greater than 100 µg/mL in data set [1] (setting [8]); greater than 100 µg/mL in [1] (setting [9]); greater than 100 µg/mL in [2] (setting [12]); greater than 100 µg/mL in data set [2] (setting [13]). In addition, the values for the MIC in data set [3] (setting [8]) and in [3] (setting [9]) were greater than 100 µg/mL and 100 µg/mL (≈ 48 µM), respectively. Also, in the data set on disseminated candidiasis, the “plasma Cmax as share of the MIC of the peptide” value is reported as less than 1%.
For the compound `C[C@@H](O)[C@H]1C(=O)N2C(C(=O)O)=C(S[C@@H]3CN[C@H](C(=O)N(C)C)C3)[C@H](C)[C@H]12` [Meropenem], the MIC with K. pneumoniae BAA-1706 (Klebsiella pneumoniae, BAA1706, 20 h) is 1.56 µg/mL (≈ 4.07 µM); with K. pneumoniae BAA-1706 (setting [14]), less than 0.78 µg/mL; with E. coli ML35 (setting [15]) it was less than 0.78 µg/mL; in the data set on E. coli ML35 (setting [16]) it was less than 0.78 µg/mL; in the data set on E. coli BAA-2471 (NDM-1) (setting [17]) it was greater than 100 µg/mL; in the data set on E. coli BAA-2471 (NDM-1) (setting [18]) it was 50 µg/mL (≈ 130 µM). Also, the MIC against E. coli BAA-2340 (KPC-2) (Escherichia coli, BAA2340) was 6.25 µg/mL (≈ 16.3 µM); in the data set with E. coli BAA-2340 (KPC-2) (Escherichia coli, BAA2340, 20 h) it was 6.25 µg/mL (≈ 16.3 µM); in [1] (setting [19]), less than 0.78 µg/mL; in [1] (setting [20]), less than 0.78 µg/mL; in data set [2] (setting [21]), 50 µg/mL (≈ 130 µM); in data set [2] (setting [13]) it was 50 µg/mL. Also, the MIC in [3] (setting [22]) was greater than 100 µg/mL; in [3] (setting [23]) it was 100 µg/mL (≈ 261 µM). For the same compound, the “long term (≥ 28 days) survival” value in data set [4] is reported as “neither carbapenem provided significant survival benefit”.
With `C[C@@H](O)[C@H]1C(=O)N2C(C(=O)O)=C(SCCN=CN)C[C@H]12` [Imipenem], the MIC is less than 0.78 µg/mL in the data set with K. pneumoniae BAA-1706 (setting [14]); 3.13 µg/mL (≈ 10.5 µM) with K. pneumoniae BAA-1706 (Klebsiella pneumoniae, BAA1706, K. pneumoniae BAA-1706, no MDR factor, CLSI, 20 h, 37 °C, A620, no serum, read-out: MIC); less than 0.78 µg/mL in the data set with E. coli ML35 (setting [15]); less than 0.78 µg/mL with E. coli ML35 (setting [16]); 25 µg/mL (≈ 83.5 µM) in the data set on E. coli BAA-2471 (NDM-1) (setting [17]); 50 µg/mL (≈ 167 µM) in the data set with E. coli BAA-2471 (NDM-1) (setting [18]). Further, the MIC against E. coli BAA-2340 (KPC-2) (Escherichia coli, BAA2340) is 6.25 µg/mL (≈ 20.9 µM); in the data set with E. coli BAA-2340 (KPC-2) (Escherichia coli, BAA2340, E. coli BAA-2340, KPC-2, CLSI, 20 h, 37 °C, A620, no serum, read-out: MIC), 25 µg/mL (≈ 83.5 µM); in [1] (setting [19]), less than 0.78 µg/mL; in [1] (setting [20]), less than 0.78 µg/mL; in [2] (Klebsiella pneumoniae, BAA1705, 20 h, in the presence of 50% heat inactivated mouse serum, A620), 12.5 µg/mL; in [2] (setting [21]), greater than 100 µg/mL. Moreover, the MIC is 25 µg/mL (≈ 83.5 µM) in data set [3] (setting [22]) and greater than 100 µg/mL in [3] (setting [23]). The “long term (≥ 28 days) survival” value in [4] is “neither carbapenem provided significant survival benefit”.
Polymyxin B: the MIC against K. pneumoniae BAA-1706 (setting [6]), with K. pneumoniae BAA-1706 (setting [7]), with E. coli ML35 (setting [8]), against E. coli ML35 (setting [9]), in the data set with E. coli BAA-2471 (NDM-1) (setting [8]) and in the data set with E. coli BAA-2471 (NDM-1) (setting [9]) was less than 0.78 µg/mL throughout. Moreover, the MIC (against E. coli BAA-2340 (KPC-2) (setting [10]); against E. coli BAA-2340 (KPC-2) (setting [11]); in [1] (setting [8]); in data set [1] (setting [9]); in data set [2] (setting [12]); in data set [2] (setting [13])) was less than 0.78 µg/mL each time. Moreover, the MIC in data set [3] (setting [8]) and in data set [3] (setting [9]) was less than 0.78 µg/mL each time. Besides, in [4], the “long term (≥ 28 days) survival” value is 95%. For the same compound, in data set [5], the “MIC against all seven organisms of the panel” value is less than 0.78 µg/mL.
